Data reported in patent US12156877B1, “Methods of treating conditions related to a thiamine deficiency, a thiamine-dependent enzyme, or an associated cofactor” (The Regents of the University of California, priority 2019, dated 2024).

Legend:
[1] = tested on: mice with thiamine-deficiency; assay: Symptoms caused by thiamine deficiency (blood lactate, grip strength, body temperature) under different oxygen tensions; type: in vivo
From the text: FIGS. 6A-6E depict the results of lowering FiO2 on the symptoms caused by thiamine deficiency. Blood lactate measured in mice housed under different oxygen tensions 21 and 35 days after the diets started. […] Muscle strength assessed by grip strength of mice administered with 17 ppm or 0 ppm thiamine for 21 days. Muscle strength is compromised in mice with thiamine-deficiency under 55% and 21% oxygen (FIG. 6C). […] Student's t-test * p<0.05, ** p<0.01, […]. While the present invention has been described with reference to the specific embodiments thereof, it should be understood by those skilled in the art that various changes may be made and equivalents may be substituted without departing from the true spirit and scope of the invention. In addition, many modifications may be made to adapt a particular situation, material, composition of matter, process, process step or steps, to the objective, spirit and scope of the present invention. All such modifications are intended to be within the scope of the claims appended hereto.

WKS mouse models = assay: Body weight and disease onset of WKS mouse model (0 ppm thiamine and pyrithiamine injections) in normoxia versus hypoxia; type: in vivo, mice
Method: FIG. 3 depicts the body weight of Wernicke-Korsakoff (WKS) Animal Model (0 ppm thiamine and pyrithiamine injections) in normoxia versus hypoxia using the methods described herein.
Hypoxia and moderate hyperoxia exposure were tested in these mouse models of WK syndrome. Six groups of mice for each different oxygen exposure will be used—(no disease, moderate disease, extreme disease)×(with or without thiamine treatment starting day 10 of the disease model). […] This sample size should be sufficient to detect a 30% increase in survival with 80% power. Disease progression in these different conditions will be carefully monitored. Daily body weights from the beginning of treatment will be taken. Additionally, behavior was monitored on a weekly basis using rotarod tests, open field experiments and the Y-maze memory test. For 3 mice per group, T2-weighted MRI scans was performed once per week. This will allow the monitoring of the disease progression and reversal. For a separate set of 3 mice per group, mice were sacked, and neuropathology performed, staining for neuronal cell loss (using NeuN) or neuroinflammatory signatures (using antibodies against GFAP) similar to that performed in Jain et. al.
FIG. 3 depicts the results of WKS mouse models being treated at 21% O2 (normoxia) and 11% O2 (hypoxia) for a span of 20 days. […] Hypoxia began on Day 3 of the experiment.

[2] = tested on: mice on a thiamine-deficient diet
[3] = tested on: mouse models for Wernicke-Korsakoff syndrome; conditions: 500 mg thiamine 3×/day; both models (thiamine-deficient diet, with or without pyrithiamine); cited from earlier work

SMILES | body temperature ([1]; 11% O2, thiamine-deficient diet for 43 days, mice under normoxic air exhibit hypothermia) | muscle strength assessed by grip strength ([1]; 55% oxygen, 0 ppm thiamine for 21 days) | blood lactate ([1]; 55% oxygen, day 21 and day 35 after the diets started, severe disease state) | disease onset (physiological signs of WKS) (WKS mouse models; 11% O2 (hypoxia) begun on Day 3, span of 20 days, versus 21% O2 (normoxia)) | significant drop of body-weight at Day 14 (WKS mouse models; 11% O2 (hypoxia), body-weight at 21% O2 dropped significantly at Day 14) | onset of weight loss ([2]; 8% O2 (extreme hypoxia)) | survival at 60 days after start of thiamine-deficient diet ([2]; 8% O2 (extreme hypoxia)) | survival time ([2]; 8% O2 (extreme hypoxia)) | extension of survival time ([2]; 11% O2, versus 21% O2 (median survival time 37 days)) | rate of body weight loss ([2]; 11% O2, versus 21% O2 (weight loss began at 21 days)) | disease progression ([2]; 55% O2) | disease progression in thiamine-deficiency models [3]
O=O [O2, oxygen] | normal body temperatures | compromised | lactic acidosis | prevented disease onset | did not | further delayed the onset of weight loss | some mice were still alive at 60 days | extended the survival time | approximately 13 days | lost body weight at a slower rate | exacerbated the disease progression | 
Cc1ncc(C[n+]2csc(CCO)c2C)c(N)n1 [thiamine] |  |  |  |  |  |  |  |  |  |  |  | can be reversed
